Earlier results as cited in patent US20030096334A1, “Use of injectable dyes for staining an anterior lens capsule and vitreo-retinal interface” (priority 2001, published 2003).

Details: descriptive term only

**Q.** With `Cc1cc(-c2ccc(/N=N/c3ccc4c(S(=O)(=O)O)cc(S(=O)(=O)O)c(N)c4c3O)c(C)c2)ccc1/N=N/c1ccc2c(S(=O)(=O)O)cc(S(=O)(=O)O)c(N)c2c1O` [Evans Blue, Tetrasodium 6.6′-[3,3′-dimethylbiphenyl-4,4′-diylbis(azo)]bis[4-amino-t-hydroxynaphthalene-1,3-disulphonate]] as the compound, how does the solubility in water read?
**A.** very soluble
